Measured values published in patent US11022605B2 (priority 2016, dated 2021).

Experiments:
[1] = in vivo; cited from earlier work
colon cancer = conditions: cited from earlier work
[2] = test system: neuromuscular junction model (motoneurons synapsed onto skeletal muscle); type: cell-based

For `CC1(C)C(C=C(Cl)Cl)C1C(=O)OCc1cccc(Oc2ccccc2)c1` (stereo not drawn) [1R-cis-, permethrin], the activity of stereoisomer [1] is listed as “active”.

For `CC1(C)C(C=C(Cl)Cl)C1C(=O)OCc1cccc(Oc2ccccc2)c1` (stereo not drawn) [1R-trans-, permethrin], the activity of stereoisomer [1] is given as “active”.

In the case of `O=c1[nH]c(=O)n(C2CCCO2)cc1F` (stereo not drawn) [Tegafur], the “optimal uracil to Tegafur ratio for maximizing 5-FU in the tumor relative to blood” value (colon cancer) is listed as 4 to 1.

For `CC1(C)C(C=C(Cl)Cl)C1C(=O)OCc1cccc(Oc2ccccc2)c1` (stereo not drawn) [cis-permethrin], the “toxicity relative to trans isomers” value [1] is listed as “about ten times more toxic”.

In the case of `O=c1cc[nH]c(=O)[nH]1` [uracil], the “effect on toxicity of Tegafur” value (colon cancer) is listed as “enhances the toxicity of Tegafur”.

With curare the dip frequency sensitivity [2] was “approximately exponential”, the “effect on contractile response” value [2] was “inhibitory based on concentration” and the “form of fitted dose-response curve of muscle contraction” value [2] was “biphasic curve”. The “plateau region of biphasic curve versus stimulation frequency” value [2] was “shrinks exponentially for increasing frequency”.
